Experimental data reported in patent publication US11179412B2, “Methods of treating conditions involving elevated inflammatory response” (University of Pittsburgh—Of the Commonwealth System of …, priority 2017, dated 2021).
Where a name gives a salt, the structure may show the parent alone.

Tested on: STING activation (IFNβ release) in iBMDMs
Assay: IFNβ release ELISA after STING ligand (or LPS) stimulation, iBMDMs
Type: cell-based, mouse
Conditions: iBMDMs; 3′3′-cGAMP 10 μg/ml, 16 hours; compound 10 μM
Text: Commercially available enzyme-linked immunosorbent assay (ELISA) kits were used to measure the concentrations of mouse IFNβ (Thermo Fisher Scientific) or human IFNβ (Thermo Fisher Scientific) in culture medium according to the manufacturer's instructions. […]

Row | SMILES | fold increase in IFN-β release [fold]
1 | COc1ccccc1OCCNCC(O)COc1cccc2[nH]c3ccccc3c12 (centres unmarked) [Carvedilol] | 1.87
2 | Cc1ccc(-c2cc(C(F)(F)F)nn2-c2ccc(S(N)(=O)=O)cc2)cc1 [Celecoxib] | 0.76
3 | COc1ccc([C@]2(C#N)CC[C@@H](C(=O)O)CC2)cc1OC1CCCC1 [Cilomilast] | 2.08
4 | C[C@@H](NCCCc1cccc(C(F)(F)F)c1)c1cccc2ccccc12 [Cinacalcet HCl] | 0.55
5 | CN1CCC[C@@H]1CCO[C@](C)(c1ccccc1)c1ccc(Cl)cc1 [Clemastine Fumarate] | 1.32
6 | C=C1C(=O)O[C@@H]2/C=C(\C)CC/C=C(\C)CC[C@@H]12 [Costunolide] | 0.37
7 | CC1(COc2ccc3c(c2)ncn3-c2ccc3cccc(N4CCC(N)CC4)c3n2)COC1 [Crenolanib (CP-868596), Crenolanib] | 0.32
8 | C[C@H]1COC2=C1C(=O)C(=O)c1c2ccc2c1CCCC2(C)C [Cryptotanshinone] | 0.17
9 | CC(=O)O[C@]1(C(C)=O)CC[C@H]2[C@@H]3C=C(Cl)C4=CC(=O)[C@@H]5C[C@@H]5[C@]4(C)[C@H]3CC[C@@]21C [Cyproterone Acetate] | 1.24
10 | c1ccc(CNc2nc(NCc3ccccc3)c3ccccc3n2)cc1 [DBeQ] | 2.18
11 | CNC(=O)c1cc(Oc2ccc(NC(=O)Nc3cc(C(C)(C)C)nn3-c3ccc4ncccc4c3)c(F)c2)ccn1 [DCC-2036 (Rebastinib), Rebastinib] | 1.71
12 | CC(C)Oc1ccc(-c2cnc3c(-c4ccnc5ccccc45)cnn3c2)cc1 [DMH1] | 1.43
13 | Cc1ccc2c(=O)c3cccc(CC(=O)O)c3oc2c1C [DMXAA (Vadimezan), 5,6-dimethylxanthenone-4-acetic acid] | 3.23
14 | CC(C)(C)c1nc(-c2cccc(NS(=O)(=O)c3c(F)cccc3F)c2F)c(-c2ccnc(N)n2)s1 [Dabrafenib (GSK2118436), Dabrafenib] | 0.86
15 | CCC(CC)CC1(C(=O)Nc2ccccc2SC(=O)C(C)C)CCCCC1 [Dalcetrapib (JTT-705, RO4607381), Dalcetrapib] | 0.13
16 | CCOc1ccc(Cc2cc([C@@H]3O[C@H](CO)[C@@H](O)[C@H](O)[C@H]3O)ccc2Cl)cc1 [Dapagliflozin] | 1.57
17 | COc1cccc2c1C(=O)c1c(O)c3c(c(O)c1C2=O)C[C@@](O)(C(C)=O)C[C@@H]3O[C@H]1C[C@H](N)[C@H](O)[C@H](C)O1 [Daunorubicin HCl] | 0.11
18 | COc1cc2nc(N3CCN(C(=O)C4COc5ccccc5O4)CC3)nc(N)c2cc1OC (centres unmarked) [Doxazosin Mesylate] | 0.69
19 | C[C@]12C=CC(=O)N[C@@H]1CC[C@@H]1[C@@H]2CC[C@]2(C)[C@@H](C(=O)Nc3cc(C(F)(F)F)ccc3C(F)(F)F)CC[C@@H]12 [Dutasteride] | 0.51
20 | O=C(N/N=C/c1ccc(O)c(O)c1)c1cc2ccccc2cc1O [Dynasore] | 1.62
21 | CC(C)C[C@H](NC(=O)[C@H]1O[C@@H]1C(=O)O)C(=O)NCCCCN=C(N)N [E-64] | 0.17
22 | CCn1c2ccccc2c2cc(Nc3ccnc(NCCCN4CCOCC4)n3)ccc21 [EHop-016] | 1.69
23 | CCN(c1cc(-c2ccc(CN3CCOCC3)cc2)cc(C(=O)NCc2c(C)cc(C)[nH]c2=O)c1C)C1CCOCC1 [EPZ-6438] | 1.03
24 | COc1cccc(C=NCCN=Cc2cccc(OC)c2[O-])c1[O-].[Cl-].[Mn+3] [EUK 134] | 1.10
25 | NC(=O)C1CCCc2c1[nH]c1ccc(Cl)cc21 (centres unmarked) [EX 527 (Selisistat), Selisistat] | 0.98
26 | COc1cc2c(cc1Cc1cccc(Cl)c1F)c(=O)c(C(=O)O)cn2[C@H](CO)C(C)C [Elvitegravir (GS-9137, JTK-303), Elvitegravir] | 2.56
